Laboratory results from the supplement of paper PMC10307832.

Assays:
Experiment in all cases: relative viability (nuclei count vs DMSO), 5 days (fraction); higher = more cells survive
A-427 = test system: A-427
In short: (§1)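 Relative viability was taken as the ratio of nuclei in treated wells to nuclei in vehicle wells. Lung cancer cell lines in 1536-well plates received compounds by pin tool one day after seeding, either one drug alone or a fixed anchor-drug dose plus five library-drug doses (not always all listed) in √10 steps. Nuclei were counted on 4× images after 5 days of treatment, and values are medians of duplicate plates.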

NCI-H460 = test system: NCI-H460
In short: as §1

NCI-H2009 = test system: NCI-H2009
In short: as §1

NCI-H1792 = test system: NCI-H1792
In short: as §1

NCI-H1395 = test system: NCI-H1395
In short: as §1

NCI-H2228 = test system: NCI-H2228
In short: as §1

CAL-12T = test system: CAL-12T
In short: as §1

HARA = test system: HARA
In short: as §1

COR-L 105 = test system: COR-L 105
In short: as §1

NCI-H23 = test system: NCI-H23
In short: as §1

NCI-H1437 = test system: NCI-H1437
In short: as §1

LCLC-103H = test system: LCLC-103H
In short: as §1

HOP-62 = test system: HOP-62
In short: as §1

NCI-H1915 = test system: NCI-H1915
In short: as §1

NCI-H727 = test system: NCI-H727
In short: as §1

EMC-BAC-2 = test system: EMC-BAC-2
In short: as §1

HCC-366 = test system: HCC-366
In short: as §1

HCC-827 = test system: HCC-827
In short: as §1

NCI-H1755 = test system: NCI-H1755
In short: as §1

SK-LU-1 = test system: SK-LU-1
In short: as §1

SW 1573 = test system: SW 1573
In short: as §1

Question: Which results are given for `O=c1cc(N2CCOCC2)oc2c(-c3cccc4c3sc3ccccc34)cccc12` + Cc1nc(NC(=O)N2CCC[C@H]2C(N)=O)sc1-c1ccnc(C(C)(C)C(F)(F)F)c1 [Alpelisib] (partner 2 µM)?
Answer: relative viability (A-427; first compound 0.01 µM): 1.11; relative viability (A-427; first compound 0.03162 µM): 1.12; relative viability (A-427; first compound 0.1 µM): 1.03; relative viability (A-427; first compound 0.3162 µM): 1.04; relative viability (A-427; first compound 1 µM): 1.09; relative viability (NCI-H460; first compound 0.01 µM): 0.509; relative viability (NCI-H460; first compound 0.03162 µM): 0.502; relative viability (NCI-H460; first compound 0.1 µM): 0.495; relative viability (NCI-H460; first compound 0.3162 µM): 0.373; relative viability (NCI-H460; first compound 1 µM): 0.538; relative viability (NCI-H2009; first compound 0.01 µM): 1.12; relative viability (NCI-H2009; first compound 0.03162 µM): 1.14; relative viability (NCI-H2009; first compound 0.1 µM): 1.18; relative viability (NCI-H2009; first compound 0.3162 µM): 1.15; relative viability (NCI-H2009; first compound 1 µM): 1.13; relative viability (NCI-H1792; first compound 0.01 µM): 0.677; relative viability (NCI-H1792; first compound 0.03162 µM): 0.628; relative viability (NCI-H1792; first compound 0.1 µM): 0.709; relative viability (NCI-H1792; first compound 0.3162 µM): 0.672; relative viability (NCI-H1792; first compound 1 µM): 0.674; relative viability (NCI-H1395; first compound 0.01 µM): 1.1; relative viability (NCI-H1395; first compound 0.03162 µM): 0.976; relative viability (NCI-H1395; first compound 0.1 µM): 0.989; relative viability (NCI-H1395; first compound 0.3162 µM): 1.09; relative viability (NCI-H1395; first compound 1 µM): 0.956; relative viability (NCI-H2228; first compound 0.03162 µM): 0.928; relative viability (NCI-H2228; first compound 0.1 µM): 0.713; relative viability (NCI-H2228; first compound 0.3162 µM): 0.877; relative viability (NCI-H2228; first compound 1 µM): 0.481; relative viability (CAL-12T; first compound 0.01 µM): 1.29; relative viability (CAL-12T; first compound 0.03162 µM): 1.1; relative viability (CAL-12T; first compound 0.1 µM): 1.13; relative viability (CAL-12T; first compound 0.3162 µM): 1.27; relative viability (CAL-12T; first compound 1 µM): 1.1; relative viability (HARA; first compound 0.01 µM): 0.854; relative viability (HARA; first compound 0.03162 µM): 0.789; relative viability (HARA; first compound 0.1 µM): 0.88; relative viability (HARA; first compound 0.3162 µM): 0.809; relative viability (HARA; first compound 1 µM): 0.845; relative viability (COR-L 105; first compound 0.01 µM): 1.1; relative viability (COR-L 105; first compound 0.03162 µM): 0.933; relative viability (COR-L 105; first compound 0.1 µM): 0.834; relative viability (COR-L 105; first compound 0.3162 µM): 1.06; relative viability (COR-L 105; first compound 1 µM): 0.838; relative viability (NCI-H23; first compound 0.01 µM): 0.71; relative viability (NCI-H23; first compound 0.03162 µM): 0.662; relative viability (NCI-H23; first compound 0.3162 µM): 0.665; relative viability (NCI-H23; first compound 1 µM): 0.745; relative viability (NCI-H1437; first compound 0.01 µM): 0.931; relative viability (NCI-H1437; first compound 0.03162 µM): 0.937; relative viability (NCI-H1437; first compound 0.1 µM): 1.02; relative viability (NCI-H1437; first compound 0.3162 µM): 0.993; relative viability (NCI-H1437; first compound 1 µM): 0.95; relative viability (LCLC-103H; first compound 0.01 µM): 0.904; relative viability (LCLC-103H; first compound 0.03162 µM): 0.924; relative viability (LCLC-103H; first compound 0.1 µM): 1.03; relative viability (LCLC-103H; first compound 0.3162 µM): 1.03; relative viability (LCLC-103H; first compound 1 µM): 0.93; relative viability (HOP-62; first compound 0.01 µM): 1.08; relative viability (HOP-62; first compound 0.03162 µM): 0.958; relative viability (HOP-62; first compound 0.1 µM): 1.24; relative viability (HOP-62; first compound 0.3162 µM): 1.19; relative viability (HOP-62; first compound 1 µM): 1.1; relative viability (NCI-H1915; first compound 0.01 µM): 1.08; relative viability (NCI-H1915; first compound 0.03162 µM): 1.04; relative viability (NCI-H1915; first compound 0.1 µM): 1.07; relative viability (NCI-H1915; first compound 0.3162 µM): 1.04; relative viability (NCI-H1915; first compound 1 µM): 1.06; relative viability (NCI-H727; first compound 0.01 µM): 0.481; relative viability (NCI-H727; first compound 0.03162 µM): 0.591; relative viability (NCI-H727; first compound 0.1 µM): 0.493; relative viability (NCI-H727; first compound 0.3162 µM): 0.538; relative viability (NCI-H727; first compound 1 µM): 0.541; relative viability (EMC-BAC-2; first compound 0.01 µM): 0.726; relative viability (EMC-BAC-2; first compound 0.03162 µM): 0.781; relative viability (EMC-BAC-2; first compound 0.1 µM): 0.813; relative viability (EMC-BAC-2; first compound 0.3162 µM): 0.759; relative viability (EMC-BAC-2; first compound 1 µM): 0.722; relative viability (HCC-366; first compound 0.01 µM): 0.386; relative viability (HCC-366; first compound 0.03162 µM): 0.469; relative viability (HCC-366; first compound 0.1 µM): 0.44; relative viability (HCC-366; first compound 0.3162 µM): 0.372; relative viability (HCC-366; first compound 1 µM): 0.367; relative viability (HCC-827; first compound 0.01 µM): 0.918; relative viability (HCC-827; first compound 0.03162 µM): 0.931; relative viability (HCC-827; first compound 0.1 µM): 0.911; relative viability (HCC-827; first compound 0.3162 µM): 0.947; relative viability (HCC-827; first compound 1 µM): 0.914; relative viability (NCI-H1755; first compound 0.01 µM): 0.952; relative viability (NCI-H1755; first compound 0.03162 µM): 0.901; relative viability (NCI-H1755; first compound 0.1 µM): 0.984; relative viability (NCI-H1755; first compound 0.3162 µM): 0.866; relative viability (NCI-H1755; first compound 1 µM): 0.894; relative viability (SK-LU-1; first compound 0.03162 µM): 0.966; relative viability (SK-LU-1; first compound 0.1 µM): 0.985; relative viability (SK-LU-1; first compound 0.3162 µM): 1.09; relative viability (SK-LU-1; first compound 1 µM): 1.01; relative viability (SW 1573; first compound 0.01 µM): 1.13; relative viability (SW 1573; first compound 0.03162 µM): 0.736; relative viability (SW 1573; first compound 0.1 µM): 0.868; relative viability (SW 1573; first compound 0.3162 µM): 0.735; relative viability (SW 1573; first compound 1 µM): 0.733
